Values of other authors, collected in US20250160636A1, “Mitigating Ocular Toxicity” (GlaxoSmithKline Intellectual Property Development Limited, priority 2022, published 2025).
Like-named read-outs stand apart in the source and are kept apart here.

Settings: for Vision disorder: n = 255, photopsia

In the case of Panitimumab, the Conjunctivitis (in 463 patients) is given as 4%, the Eye/eyelid irritation (in 463 patients) is given as 1% and the increased lacrimation (in 463 patients) is given as “increased lacrimation (2%), in 463 patients”. The ocular hyperemia (in 463 patients) was 3%.

For COc1cc2ncnc(Nc3ccc(F)c(Cl)c3)c2cc1OCCCN1CCOCC1 [Gefitinib], the “Mentions of (ocular toxicity issues)” value (full list, wrapped over lines: eye irritation, eye pain, corneal erosion/ulcer, aberrant eyelash growth, corneal membrane sloughing, and ocular ischemia/hemorrhage) is listed as “Mentions of eye irritation, eye pain, corneal erosion/ulcer, aberrant eyelash”.

For C#Cc1cccc(Nc2ncnc3cc(OCCOC)c(OCCOC)cc23)c1 [Erlotinib], the “Reported Conjunctivitis” value (n = 84) is given as 18%, the Conjunctivitis (n = 485) is given as 12% and the “Keratoconjunctivitis Sicca” value (n = 485) is given as “n = 485 and Keratoconjunctivitis Sicca 12% n = 485. Mentions of corneal”. The “Conjunctivitis Grade III” value (number of events, n = 485) was 1, the “pooled incidence of ocular disorders” value (one pancreatic cancer study) was 12.8% and the “pooled incidence of ocular disorders” value (three lung cancer studies) was 17.8%.

In the case of CCCS(=O)(=O)Nc1ccc(F)c(C(=O)c2c[nH]c3ncc(-c4ccc(Cl)cc4)cc23)c1F [Vemurafenib], the “Mentions (ocular toxicity issues)” value (in vivo) is listed as “Mentions retinal vein occlusion, uveitis, blurry vision, iritis, and photophobia”.

In the case of CN(C)C/C=C/C(=O)Nc1cc2c(Nc3ccc(F)c(Cl)c3)ncnc2cc1O[C@H]1CCOC1 [Afatinib], the Conjunctivitis (n = 229) is given as 11%, the Keratitis (n = 3865 patients) is given as 0.8% and the “grade III event” value (number of events, n = 3865 patients) is given as 1.

For CC(=O)Nc1cccc(-n2c(=O)n(C3CC3)c(=O)c3c(Nc4ccc(I)cc4F)n(C)c(=O)c(C)c32)c1 [Trametinib], the “Incidence of Retinal Veinous Occlusion” value (4/1,749) is given as “halo. Incidence of Retinal Veinous Occlusion was 0.2% (4/1,749)”, the “Incidence of Retinal Pigment Epithelial Detachment” value (14/1,749) is given as “Incidence of Retinal Pigment Epithelial Detachment was 0.8% (14/1,749)” and the “Mentions (ocular toxicity issues)” value (full list, wrapped over lines: blurry vision, dry eye, transient blindness, eye floaters, and visual halo) is given as “Mentions blurry vision, dry eye, transient blindness, eye floaters, and visual”.

In the case of Pertuzumab, the “Mentions (ocular toxicity issues)” value (in vivo) is listed as “Mentions increased lacrimation”.

For CC(C)C[C@H](NC(=O)[C@H](Cc1ccccc1)NC(=O)c1cnccn1)B(O)O [Bortezomib], the “Case reports associated with” value (case reports) is given as “Case reports associated with eyelid chalazia” and the “Label mentions (ocular toxicity issues)” value (label) is given as “Label mentions diplopia, blurred vision, conjunctival infection, irritation”.

In the case of Cc1cn(-c2cc(NC(=O)c3ccc(C)c(Nc4nccc(-c5cccnc5)n4)c3)cc(C(F)(F)F)c2)cn1 [Nilotinib], the “Frequency class of vision impairment, vision blurred, visual acuity reduced, photopsia, eye irritation” value (in vivo) is listed as “Uncommon: vision impairment, vision blurred, visual acuity reduced, photopsia,”.

For Cc1cc(Nc2ncc(Cl)c(Nc3ccccc3S(=O)(=O)C(C)C)n2)c(OC(C)C)cc1C1CCNCC1 [Ceritinib], the Vision disorder (comprised of vision impairment, blurred vision, accommodation disorder, presbyopia, or reduced visual acuity) is listed as “Vision disorder 9% (comprised of vision impairment, blurred vision, photopsia,”.

For C[C@@H](Oc1cc(-c2cnn(C3CCNCC3)c2)cnc1N)c1c(Cl)ccc(F)c1Cl [Crizotinib], the Vision disorder (includes diplopia, photophobia, vision blurred, visual field defect, visual impairment, vitreous floaters, visual brightness, and visual acuity reduced) is given as “Vision disorder 64% (Includes diplopia, photopsia, photophobia, vision blurred,”.

In the case of Rituximab, the “Mentions (ocular toxicity issues)” value (in vivo) is given as “Mentions uveitis and optic neuritis”.

In the case of COc1cc2c(Nc3ccc(Br)cc3F)ncnc2cc1OCC1CCN(C)CC1 [Vandetanib], the “Blurry vision (corneal opacities)” value (No cohort information) is given as “Blurry vision (corneal opacities) 9%. No cohort information”.

For CC(C)(C)c1nc(-c2cccc(NS(=O)(=O)c3c(F)cccc3F)c2F)c(-c2ccnc(N)n2)s1 [Dabrafenib], the “Can cause (ocular toxicity issue)” value (in vivo) is given as “cystoid macula edema” and the Uveitis/Iritis (n = 586) is given as 1%.

For Cc1nc(Nc2ncc(C(=O)Nc3c(C)cccc3Cl)s2)cc(N2CCN(CCO)CC2)n1 [Dasatinib], the Conjunctivitis (cohort not given) is given as 0.1-1% and the “Visual disorder (visual disturbance, vision blurred, decreased visual acuity) or dry eye” value (in vivo) is given as 1-10%.
